Experimental data as given in patent US6551774B1, “Diagnostic methods for conditions associated with elevated cellular levels of telomerase activity” (Board of Regents, The University of Texas System, priority 1992, dated 2003).

Experiments:
Tetrahymena cells [1] = assay: Telomere length in vegetatively grown Tetrahymena by Southern blot; type: cell-based, Tetrahymena thermophila; details: up to 1 mM, 5 days of subculturing (15-20 cell generations), 2% PPYS
Experimental: (§1) For analysis of macronuclear DNA from cultures containing the nucleoside analog AZT (Sigma), or controls lacking analog, at various timepoints during vegetative divisions, cells from stationary stock cultures were inoculated into 25 ml thymine-deficient Iso-sensitest broth (‘Isobroth’, Oxoid USA) in 250 ml flasks. Cultures were incubated at 30° C. with shaking (100 rpm) for 48 hours. Cells were counted and plated at 1000 cells/1.5 ml in 24-well plates (Falcon) and grown at 30° C., without shaking, for 48 hours. 5 μl of these log phase cells were used to inoculate 1 ml cultures (Isobroth) containing varied concentrations of nucleoside analog. Thereafter, every 2-4 days cells were transferred, either 5 μl per well, or 1-3 μl using a multi-pronged replicator into fresh 1 ml broth containing AZT. Remaining cells were pelleted and stored at −80° C. until processed for DNA analysis.
(§2) For analysis of macronuclear DNA from vegetative cultures containing the nucleoside analogs Ara-G (Calbiochem), ddG (Calbiochem), or ddI (Calbiochem), or controls lacking analog, stock cultures were grown overnight in 2% PPYS as described. Cells were counted and plated at 100 cells/2 ml in 2% PPYS containing varied amounts of analog, 1% DMSO (Fisher) (as a control for ddG and Ara-G), or 2% PPYS alone. Cells were replica plated into fresh medium every 2-6 days, and remaining cells were pelleted and stored at −80° C. until processed for DNA analysis.
For analysis of macronuclear DNA from vegetative cultures containing d4T (Sigma) or control lacking the analog, stock cultures (SB210 VI) were grown overnight in Isobroth as described. Cells were then counted and duplicate cultures inoculated at 500 cells/5 ml Isobroth in 50 ml conical tubes, and grown at 30° C., shaking 80 rpm. 500-2000 cells were transfered to fresh broth every 2-4 days, and the remainder pelleted and stored at −80° C. until processed for DNA analysis.
Restriction digests, agarose gel electrophoresis, transfer of DNA to Nytran filters (Schleicher and Schuell), and hybridization with ^32P-nick-trapplated or random-primed probes were carried out using standard procedures (Maniatis et.al. 1989). Telomere length was analyzed as described previously for Tetrahymena [Larson 50 Cell, 477, 1987].
Telomere lengths in cells grown in the presence of the different analogs were monitored by Southern blot analysis of DNA samples extracted at a series of time points during the subculturings. The telomeres of cells grown vegetatively in 1 and 5 mM AZT in 2% PPYS medium were reproducibly shortened by up to an average of 170 base pairs compared with the control cultures grown in 2% PPYS in the absence of the drug (FIG. 21A and B). This shortening of telomeres occured in a concentration-dependent manner (FIG. 21B), with at least 50% of the maximal shortening effect occurring by 10 μM AZT, the lowest concentration tested.

[2] = test system: lymphoma cell line JY 616; assay: Telomere length of JY lymphoma cells by Southern blot; type: cell-based, human; details: 10 μM, 9 and 10 weeks
Experimental: The first lane is DNA from the cells at the start of the experiment, the second is the RPMI control, and the third is cells treated with AZT for the times indicated.
Cells were treated over a 10 week period with either 10 μM ddG in 0.01% DMSO or medium with 0.01% DMSO only.
(§3) The effect of the agents on telomerase activity in intact cells was then studied utilizing the lymphoma cell line JY 616 which were maintained in RPMI 1640 with […] Hepes, 10% FCS, and penicillin/streptomycin (Gibco). The cells were cultured in 6-well plates (Falcon) with 5.0 ML of medium per well in duplicate. Cells were passaged every 7-10 days which corresponded to 5-7 mean population doublings (MPD), and seeded at 3×10^4 cells per well into fresh medium containing analog or control. Cell viability was monitored prior to harvest utilizing trypan blue stain (Gibco) during counting with a hemocytometer. The average ratio of stained: unstained cells (dead:alive) was […]. The intactness of the DNA was measured on a parallel gel by observing its mobility in a gel prior to digestion by a restriction enzyme.

Tetrahymena cells [3] = assay: Progeny formation (cycloheximide resistance) of Tetrahymena conjugated in the presence of analog; type: cell-based, Tetrahymena thermophila; details: for # CHX-R: number of cycloheximide-resistant wells; for irreversible disruption of macronuclear development: analog present during conjugation
Experimental: For analysis of cycloheximide (CHX) sensitivity of cells conjugated in the presence of analog, 50 ml cultures of each cell type were grown overnight in 2% PPYS, starved in Dryl's for 18 hours, mated (5×10^5 cells/ml) for 6 hours, then analog was added. Cells were allowed to complete mating in the presence of the analog. Twenty-four hours after mixing, cells were diluted in Dryl's solution, counted and plated at 1 cell per well of 96-well plates in 1% PPYS without analog. Cells were grown for 4 days in a humid chamber at 30° C., without shaking. Cells were then replica plated into 1% PPYS plus 15 μg/ml cycloheximide, allowed to grow for four days before scoring, and percent of CHX-resistant wells was calculated. Because generation of progeny expressing the cycloheximide marker requires successful production of a new macronucleus, cells whose macronuclear development was disrupted by the analog are killed in CHX.
This process involves de novo formation of new macronuclear telomeres in the progeny cells. Macronuclear development in ciliated protozoans such as Tetrahymena involves developmentally programmed, site-specific fragmentation of germline chromosomes into linear subchromosomes, whose ends are healed by de novo addition of telomeres. […] Because of the immediate requirement for telomere addition to fragmented DNA, it is possible that the latter process might be more sensitive to telomerase inhibition than telomere maintenance during vegetative growth. To test whether nucleoside analogs cause inhibition of macronuclear development due to a disruption of telomere formation, we mated two strains of Tetrahymena which are sensitive to cycloheximide, but whose progeny after mating are resistant to cycloheximide. Synchronized mated cells were treated with AZT at concentrations ranging from 10 μM to 5 mM for a period beginning just prior to when macronuclear development begins and continuing during macronuclear development (the period 6-24 hours after mating was initiated). […] In attempts to maximize the effect of AZT, cells were either refed at 6 hrs with 2% PPYS or Isobroth, or starved until 24 hrs (the duration of the AZT treatment). Such starvation arrests macronuclear development at an intermediate stage. When refed, macronuclear development would then be forced to proceed in the presence of the AZT. Control, unmated parental cells were also plated and exposed to drug.

[4] = molecular target: T1, human telomerase obtained from the tumor cell line 296 (Homo sapiens, UniProt O14746); assay: Inhibition of human telomerase from a tumor cell line; type: biochemical
T1 construct: human telomerase obtained from the tumor cell line 296; endogenous in cells; host or cells: tumor cell line 296 (so in the source)
T1 sequence (O14746 whole entry): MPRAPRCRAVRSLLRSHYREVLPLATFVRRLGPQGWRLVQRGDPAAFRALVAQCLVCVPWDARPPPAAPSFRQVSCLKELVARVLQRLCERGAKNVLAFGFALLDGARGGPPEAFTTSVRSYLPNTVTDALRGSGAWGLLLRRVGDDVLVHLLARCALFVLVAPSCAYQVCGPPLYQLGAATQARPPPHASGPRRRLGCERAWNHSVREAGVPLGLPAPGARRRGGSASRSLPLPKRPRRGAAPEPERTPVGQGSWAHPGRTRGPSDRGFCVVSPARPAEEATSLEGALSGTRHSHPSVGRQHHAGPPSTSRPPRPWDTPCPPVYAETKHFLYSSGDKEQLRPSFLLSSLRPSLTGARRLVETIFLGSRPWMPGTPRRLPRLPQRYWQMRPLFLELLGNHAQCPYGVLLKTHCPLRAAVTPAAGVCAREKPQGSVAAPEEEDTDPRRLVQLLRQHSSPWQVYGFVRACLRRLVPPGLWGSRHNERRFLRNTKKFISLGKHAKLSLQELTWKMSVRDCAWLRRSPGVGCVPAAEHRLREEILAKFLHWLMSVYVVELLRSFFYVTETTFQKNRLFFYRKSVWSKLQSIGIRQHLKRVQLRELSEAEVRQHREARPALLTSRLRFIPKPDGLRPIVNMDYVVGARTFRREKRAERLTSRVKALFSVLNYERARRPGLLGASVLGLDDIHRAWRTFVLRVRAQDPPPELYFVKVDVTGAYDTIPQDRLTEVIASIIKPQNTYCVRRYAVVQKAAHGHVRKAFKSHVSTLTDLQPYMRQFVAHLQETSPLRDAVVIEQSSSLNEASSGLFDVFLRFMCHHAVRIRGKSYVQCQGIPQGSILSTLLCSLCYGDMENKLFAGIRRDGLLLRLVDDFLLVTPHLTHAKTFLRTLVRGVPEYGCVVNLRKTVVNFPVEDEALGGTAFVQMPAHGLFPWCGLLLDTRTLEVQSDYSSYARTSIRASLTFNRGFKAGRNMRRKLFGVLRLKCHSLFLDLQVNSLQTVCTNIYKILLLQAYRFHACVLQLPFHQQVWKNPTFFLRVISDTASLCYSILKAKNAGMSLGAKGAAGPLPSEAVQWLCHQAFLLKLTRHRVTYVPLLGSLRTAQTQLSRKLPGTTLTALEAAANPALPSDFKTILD
T1 sequence (O60832 whole entry partner): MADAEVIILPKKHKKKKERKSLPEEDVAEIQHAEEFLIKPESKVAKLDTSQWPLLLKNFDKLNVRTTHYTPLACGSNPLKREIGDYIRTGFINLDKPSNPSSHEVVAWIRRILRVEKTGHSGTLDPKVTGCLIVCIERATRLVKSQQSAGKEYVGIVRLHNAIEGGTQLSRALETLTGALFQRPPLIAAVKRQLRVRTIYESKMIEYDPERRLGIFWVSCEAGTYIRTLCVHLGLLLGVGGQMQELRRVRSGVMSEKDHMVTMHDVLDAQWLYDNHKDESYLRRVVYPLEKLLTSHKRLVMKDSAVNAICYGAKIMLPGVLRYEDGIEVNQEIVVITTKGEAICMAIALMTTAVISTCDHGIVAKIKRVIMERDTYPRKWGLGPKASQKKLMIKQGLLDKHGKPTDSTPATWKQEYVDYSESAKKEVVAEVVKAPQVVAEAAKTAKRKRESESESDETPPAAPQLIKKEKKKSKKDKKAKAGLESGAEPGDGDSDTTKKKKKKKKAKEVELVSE
T1 sequence (Q9NPE3 whole entry partner): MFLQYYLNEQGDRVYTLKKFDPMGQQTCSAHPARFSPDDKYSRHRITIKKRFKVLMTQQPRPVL
T1 sequence (Q9NX24 whole entry partner): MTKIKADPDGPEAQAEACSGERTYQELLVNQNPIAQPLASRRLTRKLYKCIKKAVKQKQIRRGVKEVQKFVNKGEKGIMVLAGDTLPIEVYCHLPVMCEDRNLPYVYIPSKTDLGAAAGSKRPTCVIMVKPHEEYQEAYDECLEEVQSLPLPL
T1 sequence (Q9NY12 whole entry partner): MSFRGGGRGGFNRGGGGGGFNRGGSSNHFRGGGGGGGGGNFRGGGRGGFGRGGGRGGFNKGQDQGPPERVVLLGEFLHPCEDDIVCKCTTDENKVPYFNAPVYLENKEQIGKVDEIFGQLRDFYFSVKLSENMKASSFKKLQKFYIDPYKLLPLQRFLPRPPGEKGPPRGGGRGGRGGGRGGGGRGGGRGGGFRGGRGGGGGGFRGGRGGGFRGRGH

[5] = test system: lymphoma cell line JY 616; assay: Growth of cultured JY lymphoma cells with potential telomerase inhibitors; type: cell-based, human; details: 20 μM
Experimental: as §3

Tetrahymena cells [6] = assay: Single-cell transfer cultures of Tetrahymena with AZT or Ara-G; type: cell-based, Tetrahymena thermophila; details: 10 μM AZT; 10 μM or 1 mM Ara-G; 1 to 10 cells per well
Experimental: For analysis of vegetative growth and macronuclear DNA from single-cell cultures containing the nucleoside analogs AZT or Ara-G, SB210 (VI) cells were grown from stationary stock cultures overnight at 30° C. with shaking (100 rpm) in 50 ml 2% PPYS or Isobroth. Cells were counted and added to the appropriate medium plus analog (Ara-G to 1 mM or DMSO to 1% as control in 2% PPYS; AZT to 10 μm or 1 mM, or no addition as control in Isobroth) and plated in 96-well plates (Falcon), 100 μl per well at a density of 1 cell per well. 5 plates were prepared for each analog or control. Wells were scored for cell growth and plates were replica plated every 1-2 days (Ara-G and DMSO plates) or every 2-4 days (AZT and Isobroth control plates) to maintain approximate inoculation densities of 1-10 cells per well for each passage. Occasionally individual wells were passaged by hand (1 μl inoculated per well using a pipettor) into several blank wells, to expand the number of live wells per plate as single-cell cultures were lost over time due to low probability of being transferred at each passage. After passaging, cells were pooled, pelleted and stored at −80° C. until processed for DNA analysis.
To test whether we had missed such a subpopulation of cells, we carried out the same experiments on vegetatively dividing Tetrahymena cells in the presence and absence of drug, but in these experiments the subculturing was carried out by plating cells at an average of 1 to 10 cells per well in microtiter plate wells in the presence of 10 μM and 1 mM AZT, and 10 μM and 1 mM Ara-G. For each drug, cells were plated out in this manner for 30 consecutive days (90 to 150 cell generations) and 16 consecutive days (50 to 80 cell generations) respectively for the 10 μM and 1 mM drug concentrations. DNA was isolated at intervals from combined samplings of the wells for analysis of telomere length.

Tetrahymena cells [7] = assay: Growth, morphology and senescence of Tetrahymena mass-transfer cultures with nucleoside analogs; type: cell-based, Tetrahymena thermophila; details: 2% PPYS plus, mass transfer
Experimental: as §1, §2
To test whether such a phenotype could be produced by inhibitors of telomerase in Tetrahymena, duplicate log-phase cultures were grown for prolonged periods in the presence of varying concentrations of analogs. The growth and cell morphology of these cultures were monitored, and DNA was isolated at different times for telomere length analysis. […] From growth rate measurements it was calculated that the cells went through 150 to 250 cell generations in the course of this 50 day period.

[8] = 0.1 mM analog (head prints MM), first block for the analog
[9] = 0.1 mM analog, first block for the analog
[10] = 1.0 mM analog (head prints MM), first block for the analog
[11] = 1.0 mM analog, first block for the analog

Row | Structure (SMILES) | telomere length compared with control cultures (Tetrahymena cells [1]) | telomere length compared to the DMSO control [2] | % CHX-R (Tetrahymena cells [3]; 0.001 mM analog (head prints MM), first block for the analog) [%] | # CHX-R (Tetrahymena cells [3]; 0.001 mM analog, first block for the analog) | % CHX-R (Tetrahymena cells [3]; [8]) [%] | # CHX-R (Tetrahymena cells [3]; [9]) | % CHX-R (Tetrahymena cells [3]; [10]) [%] | # CHX-R (Tetrahymena cells [3]; [11]) | irreversible disruption of macronuclear development (Tetrahymena cells [3]) | inhibition of human telomerase [4] | cell growth [5] | plating efficiency compared with control medium (Tetrahymena cells [6]) | % CHX-R (Tetrahymena cells [3]; 0.01 mM analog (head prints MM), first block for the analog) [%] | # CHX-R (Tetrahymena cells [3]; 0.01 mM analog, first block for the analog) | % CHX-R (Tetrahymena cells [3]; 1.0 mM analog (head prints MM), second block for the analog) [%] | # CHX-R (Tetrahymena cells [3]; 1.0 mM analog, second block for the analog) | % CHX-R (Tetrahymena cells [3]; 2.0 mM analog (head prints MM), second block for the analog) [%] | # CHX-R (Tetrahymena cells [3]; 2.0 mM analog, second block for the analog) | cell doubling rate, morphology, long term viability (Tetrahymena cells [7])
1 | Nc1nc2c(ncn2[C@H]2CC[C@@H](CO)O2)c(=O)[nH]1 [ddG] | no changes in telomere length | decrease in telomere length | 84 | 86 | 85 | 73 | 77 | 51 | little or no irreversible disruption | effective inhibitors of human telomerase | – | – | – | – | – | – | – | – | –
2 | Nc1nc2c(ncn2[C@@H]2O[C@H](CO)[C@@H](O)[C@@H]2O)c(=O)[nH]1 [Ara-G] | – | – | – | – | 80 | 134 | 55 | 89 | little or no irreversible disruption | effective inhibitors of human telomerase | slowed growth | no changes in the plating efficiency | 81 | 114 | 59 | 51 | 43 | 40 | no effects on cell doubling rate, morphology or long term viability
